In patent publication US11999699B2, “Substituted pyrazole amides” (GRUENENTHAL GMBH, priority 2021, dated 2024) one finds IC50 data, which are given here for twelve compounds.

Bounds are passed on as bounds.

The target in the experiment is T1, human NaV1.8 (Homo sapiens, UniProt Q9Y5Y9).
T1 construct: The following NaV1.8 recombinant cell line was used for recordings: HEK-NaV1.8 (NM 006514.1); expressed in transfected cells; host or cells: HEK (recombinant cell line HEK-NaV1.8)
T1 sequence (Q9Y5Y9 whole entry): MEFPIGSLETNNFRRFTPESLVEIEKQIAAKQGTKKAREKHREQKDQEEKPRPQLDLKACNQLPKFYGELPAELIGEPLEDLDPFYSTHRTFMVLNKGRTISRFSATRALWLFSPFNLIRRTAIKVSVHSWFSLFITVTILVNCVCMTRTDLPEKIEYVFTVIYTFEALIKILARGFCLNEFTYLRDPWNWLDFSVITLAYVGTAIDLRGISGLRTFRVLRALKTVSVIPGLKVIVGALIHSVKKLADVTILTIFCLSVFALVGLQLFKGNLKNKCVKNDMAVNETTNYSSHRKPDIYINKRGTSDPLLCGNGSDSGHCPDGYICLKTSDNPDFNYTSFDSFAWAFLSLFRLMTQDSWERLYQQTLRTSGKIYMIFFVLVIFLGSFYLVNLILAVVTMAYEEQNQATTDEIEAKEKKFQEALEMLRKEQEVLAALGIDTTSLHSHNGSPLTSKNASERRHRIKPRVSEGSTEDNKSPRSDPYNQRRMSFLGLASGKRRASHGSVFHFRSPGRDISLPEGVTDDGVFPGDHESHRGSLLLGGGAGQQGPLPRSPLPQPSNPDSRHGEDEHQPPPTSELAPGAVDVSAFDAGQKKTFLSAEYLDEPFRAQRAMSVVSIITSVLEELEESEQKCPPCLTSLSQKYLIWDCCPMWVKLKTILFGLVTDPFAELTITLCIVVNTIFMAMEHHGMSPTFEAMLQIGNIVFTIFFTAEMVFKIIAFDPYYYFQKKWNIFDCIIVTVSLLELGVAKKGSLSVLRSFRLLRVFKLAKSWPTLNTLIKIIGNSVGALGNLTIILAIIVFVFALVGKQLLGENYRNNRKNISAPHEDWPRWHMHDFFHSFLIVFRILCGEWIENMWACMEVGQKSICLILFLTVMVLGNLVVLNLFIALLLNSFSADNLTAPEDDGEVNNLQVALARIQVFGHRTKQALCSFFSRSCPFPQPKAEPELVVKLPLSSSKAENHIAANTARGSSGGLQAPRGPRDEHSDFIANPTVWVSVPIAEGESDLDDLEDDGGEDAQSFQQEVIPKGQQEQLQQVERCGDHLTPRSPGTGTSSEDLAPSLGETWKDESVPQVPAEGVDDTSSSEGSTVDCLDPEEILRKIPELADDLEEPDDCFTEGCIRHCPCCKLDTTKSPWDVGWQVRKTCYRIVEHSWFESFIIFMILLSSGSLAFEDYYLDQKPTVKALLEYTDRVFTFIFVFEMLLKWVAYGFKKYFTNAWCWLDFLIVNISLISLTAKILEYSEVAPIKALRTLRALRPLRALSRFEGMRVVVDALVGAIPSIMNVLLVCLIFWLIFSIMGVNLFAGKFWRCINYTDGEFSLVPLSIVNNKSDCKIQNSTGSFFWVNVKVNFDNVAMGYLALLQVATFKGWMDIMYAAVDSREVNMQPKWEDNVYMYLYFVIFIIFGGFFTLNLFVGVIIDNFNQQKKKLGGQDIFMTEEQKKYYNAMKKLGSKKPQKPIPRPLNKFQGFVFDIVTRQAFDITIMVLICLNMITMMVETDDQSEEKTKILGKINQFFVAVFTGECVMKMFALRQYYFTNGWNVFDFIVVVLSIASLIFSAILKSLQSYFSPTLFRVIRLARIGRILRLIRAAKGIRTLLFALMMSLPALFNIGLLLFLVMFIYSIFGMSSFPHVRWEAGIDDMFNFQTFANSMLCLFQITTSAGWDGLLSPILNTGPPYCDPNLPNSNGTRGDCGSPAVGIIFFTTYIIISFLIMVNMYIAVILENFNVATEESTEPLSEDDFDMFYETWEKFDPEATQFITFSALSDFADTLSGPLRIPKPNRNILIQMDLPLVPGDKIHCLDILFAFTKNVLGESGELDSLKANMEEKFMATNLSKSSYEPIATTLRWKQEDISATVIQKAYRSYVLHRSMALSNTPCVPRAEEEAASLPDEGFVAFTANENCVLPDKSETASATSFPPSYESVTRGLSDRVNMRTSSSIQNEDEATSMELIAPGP
T1 sequence (Q9NY72 23-215 partner): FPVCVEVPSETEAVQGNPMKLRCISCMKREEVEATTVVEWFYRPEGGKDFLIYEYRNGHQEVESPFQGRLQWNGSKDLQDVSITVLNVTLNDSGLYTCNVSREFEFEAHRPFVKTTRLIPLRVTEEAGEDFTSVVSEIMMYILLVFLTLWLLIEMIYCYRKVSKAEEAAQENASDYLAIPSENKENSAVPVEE
Nature of the experiment: Electrophysiology: automated whole-cell voltage-clamp (patch clamp, Qube384) recordings of sodium currents in HEK-NaV1.8 cells. It counts as cell-based. The note with it: potency data either taken from inactivated or resting state, read-out: Potency category (human NaV1.8 IC50). In outline:
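Automated whole-cell patch clamp at room temperature on HEK cells expressing human NaV1.8, with 0.3% DMSO vehicle controls. State-dependent protocol from −120 mV tested resting (P1) and half-inactivated (P2, 4 s at V1/2) channels, plus 40-pulse trains at 10 and 20 Hz. Values after ~12 min compound exposure were normalised to baseline and corrected for vehicle run-down; IC50 from a 4-parameter logistic fit, taken from inactivated or resting state.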
Background: Patch clamp records ionic current or voltage across a cell membrane.
Usually IC50 stands for the midpoint of a concentration-inhibition curve. Take `Cc1c(C(C)(F)F)nn(C[C@]2(C)CCCO2)c1C(=O)Nc1ccnc(S(N)(=O)=O)c1` (single isomer, unassigned) [SC-319a]: the IC50 was 0.1 to 1 µM.

In the case of `Cc1nn(C[C@@H]2CCC(F)(F)C2)c(C(=O)Nc2ccnc(C(N)=O)n2)c1C(F)(F)F` [SC-248R], the half-inhibitory concentration (IC50) was in the range of 1 to 10 µM.

Regarding `COc1c(C(C)(F)F)nn(CC2CCC(F)(F)C2)c1C(=O)Nc1ccnc(C(N)=O)c1` (single isomer, unassigned) [SC-271b], the IC50 is 0.1 to 1 µM.

On to `Cc1c(C(C)(F)F)nn(CC2CC(F)(F)C2)c1C(=O)Nc1ccnc(C(N)=O)c1` [SC-161, 4-(1-((3,3-difluorocyclobutyl)methyl)-3-(1,1-difluoroethyl)-4-methyl-1H-pyrazole-5-carboxamido)picolinamide], for which the IC50 was not above 0.1 µM.

For the compound `NC(=O)c1cc(NC(=O)c2c(C(F)(F)F)c(C3CC3)nn2CC2CC(F)(F)C2(F)F)ccn1` (single isomer, unassigned) [SC-291a], the half-maximal inhibitory concentration (IC50) was not above 0.1 µM.

Take `Cc1cnc(C(N)=O)cc1NC(=O)c1c(C(F)(F)F)c(C)nn1CC1CCC(F)(F)CC1` [SC-249, 4-(1-((4,4-difluorocyclohexyl)methyl)-3-methyl-4-(trifluoromethyl)-1H-pyrazole-5-carboxamido)-5-methyipicolinamide]: the IC50 is 0.1 to 1 µM.

For the compound `Cc1nn(CC2CCOCC2)c(C(=O)Nc2cccc(S(N)(=O)=O)c2)c1C` [SC-45, 3,4-dimethyl-N-(3-sulfamoylphenyl)-1-((tetrahydro-2H-pyran-4-yl)methyl)-1H-pyrazole-5-carboxamide], the IC50 lay in the range of 1 to 10 µM.

Consider `CCOc1nn(CC2CCC(F)(F)C2)c(C(=O)Nc2ccnc(C(N)=O)c2)c1C(F)(F)F` (stereo not drawn) [SC-156, 4-(1-((3,3-difluorocyclopentyl)methyl)-3-ethoxy-4-(trifluoromethyl)-1H-pyrazole-5-carboxamido)picolinamide], for which the IC50 was not above 0.1 µM.

For the compound `Cc1c(Cl)nn(CC2CCC(F)(F)CC2)c1C(=O)Nc1ccnc(C(N)=O)c1` [SC-239, 4-(3-chloro-1-((4,4-difluorocyclohexyl)methyl)-4-methyl-1H-pyrazole-5-carboxamido)picolinamide], the 50% inhibitory concentration (IC50) was in the range of 0.1 to 1 µM.

In the case of `CS(=O)(=O)c1cncc(NC(=O)c2c(C(F)(F)F)cnn2CC2CCC(F)(F)CC2)c1` [SC-15, 2-[(4,4-difluorocyclohexyl)methyl]-N-(5-methylsulfonylpyridin-3-yl)-4-(trifluoromethyl)pyrazole-3-carboxamide], the half-inhibitory concentration (IC50) was in the range of 1 to 10 µM.

As for `CNC(=O)c1cc(NC(=O)c2c(C(F)(F)F)c(C)nn2CC2CCC(F)(F)CC2)ccn1` [SC-260, 4-(1-((4,4-difluorocyclohexyl)methyl)-3-methyl-4-(trifluoromethyl)-1H-pyrazole-5-carboxamido)-N-methyIpicolinamide], the 50% inhibitory concentration (IC50) is 0.1 to 1 µM.

Take `Cc1c(C(F)(F)C(F)(F)F)nn(CC2CCC2(F)F)c1C(=O)Nc1ccnc(C(N)=O)c1` (single isomer, unassigned) [SC-278b]: the concentration for half-maximal inhibition (IC50) is not above 0.1 µM.
